In PubChem BioAssay (NCI):
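Results reflect a 48-hour exposure of cells in 96-well plates to compound at five concentrations. GI50 = concentration required for 50% inhibition of growth. The concentration for full growth arrest is given as TGI.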

Experiments:
Experiment in all cases: inhibition of tumour cell growth, NCI panel, 48 h
MALME-3M melanoma = system: MALME-3M melanoma
SNB-19 CNS = system: SNB-19 CNS
RPMI-8226 leukemia = system: RPMI-8226 leukemia
SW-620 colon = system: SW-620 colon
DU-145 prostate = system: DU-145 prostate
SN12C renal = system: SN12C renal
CAKI-1 renal = system: CAKI-1 renal
SF-268 CNS = system: SF-268 CNS
IGROV1 ovarian = system: IGROV1 ovarian
UACC-62 melanoma = system: UACC-62 melanoma
UO-31 renal = system: UO-31 renal
HCT-15 colon = system: HCT-15 colon
NCI-H23 lung = system: NCI-H23 lung
SF-295 CNS = system: SF-295 CNS
HCC-2998 colon = system: HCC-2998 colon
TK-10 renal = system: TK-10 renal
SK-MEL-5 melanoma = system: SK-MEL-5 melanoma
NCI-H522 lung = system: NCI-H522 lung
SR leukemia = system: SR leukemia
T-47D breast = system: T-47D breast
RXF 393 renal = system: RXF 393 renal
COLO 205 colon = system: COLO 205 colon
A498 renal = system: A498 renal
HOP-62 NSCLC = system: HOP-62 NSCLC
HS 578T breast = system: HS 578T breast
ACHN renal = system: ACHN renal
UACC-257 melanoma = system: UACC-257 melanoma
HL-60(TB) leukemia = system: HL-60(TB) leukemia
NCI/ADR-RES ovarian = system: NCI/ADR-RES ovarian
OVCAR-3 ovarian = system: OVCAR-3 ovarian
KM12 colon = system: KM12 colon
NCI-H460 lung = system: NCI-H460 lung
M14 melanoma = system: M14 melanoma
CCRF-CEM leukemia = system: CCRF-CEM leukemia
OVCAR-4 ovarian = system: OVCAR-4 ovarian
MDA-MB-435 = system: MDA-MB-435
786-0 renal = system: 786-0 renal
SK-MEL-28 melanoma = system: SK-MEL-28 melanoma
SNB-75 CNS = system: SNB-75 CNS
MDA-MB-231 breast = system: MDA-MB-231 breast
A549 NSCLC = system: A549 NSCLC
HOP-92 NSCLC = system: HOP-92 NSCLC
K-562 leukemia = system: K-562 leukemia
SK-MEL-2 melanoma = system: SK-MEL-2 melanoma
EKVX NSCLC = system: EKVX NSCLC
HCT-116 colon = system: HCT-116 colon
HT29 colon = system: HT29 colon
U251 CNS = system: U251 CNS
MDA-MB-468 breast = system: MDA-MB-468 breast
MCF7 breast = system: MCF7 breast
LOX IMVI melanoma = system: LOX IMVI melanoma
SF-539 CNS = system: SF-539 CNS
PC-3 prostate = system: PC-3 prostate
OVCAR-8 ovarian = system: OVCAR-8 ovarian
MOLT-4 leukemia = system: MOLT-4 leukemia
OVCAR-5 ovarian = system: OVCAR-5 ovarian
BT-549 breast = system: BT-549 breast
SK-OV-3 ovarian = system: SK-OV-3 ovarian
NCI-H226 lung = system: NCI-H226 lung

Compound: CN1CCN(c2ccc3c(c2)nc(NNC(=O)c2ncccn2)c2cccn23)CC1
- GI50 (MALME-3M melanoma): 1380 nM
- TGI (MALME-3M melanoma): 4290 nM
- GI50 (SNB-19 CNS): 966 nM
- TGI (SNB-19 CNS): 12500 nM
- GI50 (RPMI-8226 leukemia): 2980 nM
- TGI (RPMI-8226 leukemia): 13300 nM
- GI50 (SW-620 colon): 855 nM
- TGI (SW-620 colon): 3830 nM
- GI50 (DU-145 prostate): 1250 nM
- TGI (DU-145 prostate): 11000 nM
- GI50 (SN12C renal): 1390 nM
- TGI (SN12C renal): 10800 nM
- GI50 (CAKI-1 renal): 782 nM
- TGI (CAKI-1 renal): 7620 nM
- GI50 (SF-268 CNS): 594 nM
- TGI (SF-268 CNS): 11900 nM
- GI50 (IGROV1 ovarian): 1670 nM
- TGI (IGROV1 ovarian): 11000 nM
- GI50 (UACC-62 melanoma): 828 nM
- TGI (UACC-62 melanoma): 3450 nM
- GI50 (UO-31 renal): 677 nM
- TGI (UO-31 renal): 4070 nM
- GI50 (HCT-15 colon): 762 nM
- TGI (HCT-15 colon): 5250 nM
- GI50 (NCI-H23 lung): 1890 nM
- TGI (NCI-H23 lung): 10100 nM
- GI50 (SF-295 CNS): 622 nM
- TGI (SF-295 CNS): 2960 nM
- GI50 (HCC-2998 colon): 706 nM
- TGI (HCC-2998 colon): 3000 nM
- GI50 (TK-10 renal): 489 nM
- TGI (TK-10 renal): 3050 nM
- GI50 (SK-MEL-5 melanoma): 1160 nM
- TGI (SK-MEL-5 melanoma): 3170 nM
- GI50 (NCI-H522 lung): 927 nM
- TGI (NCI-H522 lung): 5310 nM
- GI50 (SR leukemia): 433 nM
- TGI (SR leukemia): 11600 nM
- GI50 (T-47D breast): 1660 nM
- TGI (T-47D breast): 5780 nM
- GI50 (RXF 393 renal): 1430 nM
- TGI (RXF 393 renal): 3990 nM
- GI50 (COLO 205 colon): 476 nM
- TGI (COLO 205 colon): 1720 nM
- GI50 (A498 renal): 1720 nM
- TGI (A498 renal): 3320 nM
- GI50 (HOP-62 NSCLC): 453 nM
- TGI (HOP-62 NSCLC): 3200 nM
- GI50 (HS 578T breast): 3010 nM
- TGI (HS 578T breast): 34500 nM
- GI50 (ACHN renal): 712 nM
- TGI (ACHN renal): 6010 nM
- GI50 (UACC-257 melanoma): 2280 nM
- TGI (UACC-257 melanoma): 6250 nM
- GI50 (HL-60(TB) leukemia): 556 nM
- TGI (HL-60(TB) leukemia): 4820 nM
- GI50 (NCI/ADR-RES ovarian): 2570 nM
- TGI (NCI/ADR-RES ovarian): 9440 nM
- GI50 (OVCAR-3 ovarian): 704 nM
- TGI (OVCAR-3 ovarian): 4420 nM
- GI50 (KM12 colon): 630 nM
- TGI (KM12 colon): 12800 nM
- GI50 (NCI-H460 lung): 1220 nM
- TGI (NCI-H460 lung): 10500 nM
- GI50 (M14 melanoma): 611 nM
- TGI (M14 melanoma): 3000 nM
- GI50 (CCRF-CEM leukemia): 224 nM
- TGI (CCRF-CEM leukemia): 2100 nM
- GI50 (OVCAR-4 ovarian): 725 nM
- TGI (OVCAR-4 ovarian): 4100 nM
- GI50 (MDA-MB-435): 1780 nM
- TGI (MDA-MB-435): 13500 nM
- GI50 (786-0 renal): 795 nM
- TGI (786-0 renal): 2110 nM
- GI50 (SK-MEL-28 melanoma): 849 nM
- TGI (SK-MEL-28 melanoma): 9030 nM
- GI50 (SNB-75 CNS): 610 nM
- TGI (SNB-75 CNS): 11400 nM
- GI50 (MDA-MB-231 breast): 902 nM
- TGI (MDA-MB-231 breast): 3990 nM
- GI50 (A549 NSCLC): 1700 nM
- TGI (A549 NSCLC): 11300 nM
- GI50 (HOP-92 NSCLC): 482 nM
- TGI (HOP-92 NSCLC): 2460 nM
- GI50 (K-562 leukemia): 1880 nM
- TGI (K-562 leukemia): > 32400 nM
- GI50 (SK-MEL-2 melanoma): 1280 nM
- TGI (SK-MEL-2 melanoma): 4210 nM
- GI50 (EKVX NSCLC): 529 nM
- TGI (EKVX NSCLC): 3960 nM
- GI50 (HCT-116 colon): 347 nM
- TGI (HCT-116 colon): 2610 nM
- GI50 (HT29 colon): 628 nM
- TGI (HT29 colon): 2340 nM
- GI50 (U251 CNS): 514 nM
- TGI (U251 CNS): 3940 nM
- GI50 (MDA-MB-468 breast): 408 nM
- TGI (MDA-MB-468 breast): 1820 nM
- GI50 (MCF7 breast): 1980 nM
- TGI (MCF7 breast): 9750 nM
- GI50 (LOX IMVI melanoma): 383 nM
- TGI (LOX IMVI melanoma): 2640 nM
- GI50 (SF-539 CNS): 1090 nM
- TGI (SF-539 CNS): 4200 nM
- GI50 (PC-3 prostate): 344 nM
- TGI (PC-3 prostate): 4120 nM
- GI50 (OVCAR-8 ovarian): 655 nM
- TGI (OVCAR-8 ovarian): 2380 nM
- GI50 (MOLT-4 leukemia): 435 nM
- TGI (MOLT-4 leukemia): 15600 nM
- GI50 (OVCAR-5 ovarian): 1370 nM
- TGI (OVCAR-5 ovarian): 5800 nM
- GI50 (BT-549 breast): 856 nM
- TGI (BT-549 breast): 2820 nM
- GI50 (SK-OV-3 ovarian): 459 nM
- TGI (SK-OV-3 ovarian): 1830 nM
- GI50 (NCI-H226 lung): 929 nM
- TGI (NCI-H226 lung): 2630 nM
